Like-named read-outs stand apart in the source and are kept apart here.
Experiments:
[1] = test system: human having a sense of fatigue; assay: OSA sleep analysis (OSA sleep inventory MA version); assay type: in vivo
Method: (§1) A placebo-controlled, randomized, double-blind, parallel-group study was employed for ingestion of the test food, and two groups, namely, the control group (placebo group) with ingestion of a capsule not containing astaxanthin and the astaxanthin group with ingestion of a capsule containing 6 mg of astaxanthin (120 mg of Haematococcus algae extract and 10 mg of tocotrienol mixture derived from palm oil) were compared through a double-blind method. For ingestion of the test food, the subjects were instructed to ingest one capsule twice daily (total 12 mg of astaxanthin (240 mg of Haematococcus algae extract and 20 mg of tocotrienol mixture derived from palm oil) in two capsules per day), one after breakfast (or after the first meal of the day if no breakfast was taken) and the other after dinner, with water or lukewarm water within 30 min of eating. The overall duration for ingestion was 8 weeks (12 weeks only for the OSA sleep analysis). The subjects were also instructed to record their test food ingestion, drinking, and exercise in a diary every day, from the first day to the last day of ingestion.
In accordance with a method reported in Yukari Yamamoto, Hideki Tanaka, Miki Takase, Katuo Yamazaki, Kazuo Azumi, and Shuichiro Shirakawa: “Development and standardization of OSA sleep inventory (MA version) for middle-aged and elderly individuals”, Brain Science and Mental Disorders, vol. 10, p 401-409, 1999, the subjects were instructed to evaluate with respect to items listed in the OSA sleep inventory, and the results were analyzed. The assessment was performed once in the morning of the day of assessment (before load application). The OSA sleep inventory (MA version) consists of 16 items in terms of five factors, namely, First factor: sleepiness on rising, Second factor: initiation and maintenance of sleep, Third factor: frequent dreaming, Fourth factor: refreshing, and Fifth factor: sleep length, and the subjects were instructed to answer each question from four choices, and the results were converted to scores with a conversion table for analysis.

[2] = test system: human having a sense of fatigue; assay: POMS (Profile of Mood States) analysis; assay type: in vivo
Method: as §1
Using the self-administered POMS 2 in Japanese, adult short version (Kanekoshobo, Tokyo, Japan), the subjects answered 35 questions by rating their “current mood” on a 5-point scale (0=not at all; 1=a little; 2=moderately; 3=quite a bit; 4=extremely). Responses to each question were scored according to the POMS scoring system for the seven scales: anger-hostility, confusion-bewilderment, depression-dejection, fatigue-inertia, tension-anxiety, vigor-activity, and friendliness, and the raw scores were converted into TMD scores with a conversion table. The POMS was administered 3 times in total in one day: in the morning of the day of assessment (before load application), after mental load application (calculation load; Uchida-Kraepelin test), and at the end of the day of assessment (after the rest period). To determine transient changes in fatigue, the load-induced change was calculated by subtracting the pre-load value from the values after mental load application and after a rest period therefor. In addition, to determine the effect of test food ingestion alone, ingestion-induced change was calculated by subtracting the pre-load (pre-ingestion) value at week 0 from the pre-load value after 8-week ingestion.

[3] = test system: salivary secretory immunoglobulin A (sIgA); assay: Measurement of salivary secretory immunoglobulin A (EIA); assay type: in vivo, human
From the text: Salivary cortisol, which was examined as a biochemical index for a mental load, is used as a stress marker because of simplicity of measurement due to the high correlation with blood cortisol, and known to be increased by an acute mental stress, for example, caused at making a speech in front of others or doing mental calculation or by continuous, high-intensity exercise. Because the salivary cortisol concentration is known to show circadian variation, being high in the morning and then declining as the night approaches, mental load application (calculation load; Uchida-Kraepelin test) was performed in the morning in this study. Salivary secretory immunoglobulin A (sIgA) is an antibody produced by B cells that inhibits the proliferation of pathogens on the mucosa of the oral cavity, airway, intestines, and other organs. It is known that reduction of sIgA in saliva is associated with the development of upper respiratory tract infection and that salivary sIgA concentration decreases under chronic stress and increases in a relaxed state.
Saliva samples were collected from the subjects in the morning of the day of assessment (before load application) in the same manner as in (1) of [5-2]. The sIgA concentration in each saliva sample was measured with an enzyme immunoassay (EIA) kit (EIA s-IgA Test Kit, Medical & Biological Laboratories Co., Ltd.).

[4] = test system: human having a sense of fatigue; assay: Continuous calculation task (Uchida-Kraepelin test), task performance with a mental load; assay type: in vivo; conditions: after 8-week ingestion, vs control group (FIG. 18)
Method: A mental load was applied to each subject by a continuous calculation task with the Uchida-Kraepelin test (Nisseiken Inc., Japan) consisting of two sessions of a 15-min serial addition task (total 30 min), with a 5-min rest period between the first and second sessions. Specifically, the subjects were instructed to sequentially add two adjoining single-digit numbers (combination of 3, 4, 5, 6, 7, 8, and 9), record only the last digit (one's place) of the sum, spend only 1 min on each line, and then quickly move on to the next line of numbers for calculation. This task was continued for 15 min in each session. After the completion of the task, the number of calculations and the number of wrong answers were counted to calculate the percentage of correct answers, and the results for the first session were subtracted from those for the second session to determine change in task performance in the second session, which was used as the task performance with a mental load.

[5] = Adverse events in Study 1; assay type: in vivo, human
[6] = previously: 12 mg/day of astaxanthin and 40 mg/day of tocotrienol for eight weeks; cited from earlier work
[7] = as high as that of vitamin E; cited from earlier work
[8] = astaxanthin group vs pre-ingestion, no significant difference (FIG. 2)
[9] = throughout the study period, 12 mg/day

CC1=C(/C=C/C(C)=C/C=C/C(C)=C/C=C/C=C(C)/C=C/C=C(C)/C=C/C2=C(C)C(=O)C(O)CC2(C)C)C(C)(C)CC(O)C1=O (stereo not drawn) [astaxanthin, 3,3′-dihydroxy-β,β-carotene-4,4′-dione]
OSA First factor (sleepiness on rising) [1, 8]: large increase
OSA Fourth factor (refreshing) [1, 8]: large increase
OSA Second factor (initiation and maintenance of sleep) [1, 8]: large increase
OSA Fifth factor (sleep length) ([1]; astaxanthin group, 12 mg/day, vs pre-ingestion (FIG. 2)): marginally significant increase
degree of improvement in Fifth factor (sleep length) compared with chamomile tea ([1]; vs literature: 200 mL chamomile tea 1 hour before bedtime over three days): larger
POMS ingestion-induced change, Friendliness (F) ([2]; after 8-week ingestion minus pre-ingestion, vs control group (FIG. 6)): significant high value
POMS load-induced change, Vigor-activity (VA) ([2]; after the rest period, after 8-week ingestion, vs control group (FIG. 6)): marginally significant high value
POMS improvement in Vigor-activity (VA) compared with quercetin/isoquercetin ([2]; vs literature: 250 mg quercetin and 100 mg isoquercetin for 42 to 54 days): larger
POMS improvement in Vigor-activity (VA), AH, FI and CB compared with bonito stock ([2]; vs literature: bonito stock morning and evening over two weeks): larger
salivary sIgA concentration ([3]; after 8-week ingestion): 41.9 ± 5.5 µg/mL
salivary sIgA concentration ([3]; at pre-ingestion (before load application), astaxanthin group): 46.5 ± 8.2 µg/mL
change in salivary sIgA concentration ([3]; until week 8 of ingestion vs pre-ingestion (FIG. 8)): no significant change
change in the number of wrong answers in the second session, continuous calculation task [4]: significant improvement
percentage of correct answers in the second session, continuous calculation task [4]: significant improvement
adverse event ([5]; this study): no adverse event was found
adverse subjective symptoms [5, 9]: none of the subjects complained
medical examination by a physician [5, 9]: no remarkable abnormalities
adverse event [6]: No adverse event
antioxidative effect relative to vitamin E [7]: 1000 times

Reference: patent US20220047527A1, “FOOD-AND-DRINK COMPOSITION CONTAINING ASTAXANTHIN” (AstaReal Co., Ltd., priority 2016, published 2022)
